Calls of active or inactive are those of the source. No rule for the calls is given here.
Test system: CCRIS mutagenicity, Ames/micronucleus/aberration tests
Assay: CCRIS mutagenicity studies
[1] = Test System: AMES SALMONELLA TYPHIMURIUM, Strain/Indicator: TA98, Metabolic Activation: NONE, Method: STANDARD PLATE
[2] = Test System: AMES SALMONELLA TYPHIMURIUM, Strain/Indicator: TA98, Metabolic Activation: RAT, LIVER, S-9, AROCLOR 1254, Method: STANDARD PLATE
[3] = Test System: AMES SALMONELLA TYPHIMURIUM, Strain/Indicator: TA1535, Metabolic Activation: NONE, Method: STANDARD PLATE
[4] = Test System: AMES SALMONELLA TYPHIMURIUM, Strain/Indicator: TA1535, Metabolic Activation: RAT, LIVER, S-9, AROCLOR 1254, Method: STANDARD PLATE
[5] = Test System: AMES SALMONELLA TYPHIMURIUM, Strain/Indicator: TA1537, Metabolic Activation: NONE, Method: STANDARD PLATE
[6] = Test System: AMES SALMONELLA TYPHIMURIUM, Strain/Indicator: TA1537, Metabolic Activation: RAT, LIVER, S-9, AROCLOR 1254, Method: STANDARD PLATE
[7] = Test System: AMES SALMONELLA TYPHIMURIUM, Strain/Indicator: TA1538, Metabolic Activation: RAT, LIVER, S-9, AROCLOR 1254, Method: STANDARD PLATE

N=c1ccc2nc3ccc(N)cc3sc-2c1
mutagenic call [1]: active; positive
mutagenic call [2]: active; positive
mutagenic call [3]: inactive; negative
mutagenic call [4]: inactive; negative
mutagenic call [5]: inactive; negative
mutagenic call [6]: inactive; negative
mutagenic call (Test System: AMES SALMONELLA TYPHIMURIUM, Strain/Indicator: TA1538, Metabolic Activation: NONE, Method: STANDARD PLATE): active; positive
mutagenic call [7]: active; positive

Cc1cccc2c([N+](=O)[O-])cccc12
mutagenic call (Test System: AMES SALMONELLA TYPHIMURIUM, Strain/Indicator: TA98, Metabolic Activation: NONE, Method: PREINCUBATION): active; positive

COc1cccc2c1ccc1c(C(=O)O)cc3c(c12)OCO3
mutagenic call (Test System: AMES SALMONELLA TYPHIMURIUM, Strain/Indicator: D3052, Metabolic Activation: NONE, Method: STANDARD PLATE): inactive; negative
mutagenic call (Test System: AMES SALMONELLA TYPHIMURIUM, Strain/Indicator: D3052, Metabolic Activation: RAT, LIVER, S-9, PHENOBARBITAL, Method: STANDARD PLATE): inactive; negative
mutagenic call (Test System: AMES SALMONELLA TYPHIMURIUM, Strain/Indicator: G46, Metabolic Activation: NONE, Method: STANDARD PLATE): inactive; negative
mutagenic call (Test System: AMES SALMONELLA TYPHIMURIUM, Strain/Indicator: G46, Metabolic Activation: RAT, LIVER, S-9, PHENOBARBITAL, Method: STANDARD PLATE): inactive; negative
mutagenic call (Test System: AMES SALMONELLA TYPHIMURIUM, Strain/Indicator: TA98(NR), Metabolic Activation: NONE, Method: STANDARD PLATE): active; positive
mutagenic call (Test System: AMES SALMONELLA TYPHIMURIUM, Strain/Indicator: TA98, Metabolic Activation: RAT, LIVER, S-9, PHENOBARBITAL, Method: STANDARD PLATE): inactive; negative
mutagenic call (Test System: AMES SALMONELLA TYPHIMURIUM, Strain/Indicator: TA100(NR), Metabolic Activation: NONE, Method: STANDARD PLATE): active; positive
mutagenic call (Test System: AMES SALMONELLA TYPHIMURIUM, Strain/Indicator: TA100, Metabolic Activation: RAT, LIVER, S-9, PHENOBARBITAL, Method: STANDARD PLATE): inactive; negative
mutagenic call (Test System: AMES SALMONELLA TYPHIMURIUM, Strain/Indicator: TA102, Metabolic Activation: NONE, Method: STANDARD PLATE): active; positive
mutagenic call [3]: inactive; negative
mutagenic call (Test System: AMES SALMONELLA TYPHIMURIUM, Strain/Indicator: TA1535, Metabolic Activation: RAT, LIVER, S-9, PHENOBARBITAL, Method: STANDARD PLATE): inactive; negative
mutagenic call (Test System: AMES SALMONELLA TYPHIMURIUM, Strain/Indicator: TA1978, Metabolic Activation: NONE, Method: STANDARD PLATE): inactive; negative
mutagenic call (Test System: AMES SALMONELLA TYPHIMURIUM, Strain/Indicator: TA1978, Metabolic Activation: RAT, LIVER, S-9, PHENOBARBITAL, Method: STANDARD PLATE): inactive; negative
mutagenic call (Test System: AMES SALMONELLA TYPHIMURIUM, Strain/Indicator: TM677/8-AZAGUANINE, Metabolic Activation: NONE, Method: SUSPENSION/PLATE): active; positive
mutagenic call (Test System: AMES SALMONELLA TYPHIMURIUM, Strain/Indicator: YG1021, Metabolic Activation: NONE, Method: STANDARD PLATE): inactive; negative
mutagenic call (Test System: AMES SALMONELLA TYPHIMURIUM, Strain/Indicator: YG1026, Metabolic Activation: NONE, Method: STANDARD PLATE): inactive; negative
mutagenic call (Test System: CHINESE HAMSTER OVARY, Strain/Indicator: CHO-K1-BH4 (HGPRT), Metabolic Activation: NONE): active; positive

COc1ccc(N/C=C/C2=[N+](C)c3ccccc3C2(C)C)c(OC)c1
mutagenic call (Test System: Ames Salmonella typhimurium, Strain/Indicator: TA98, Metabolic Activation: None, Method: Preincubation): inactive; negative
mutagenic call (Test System: Ames Salmonella typhimurium, Strain/Indicator: TA98, Metabolic Activation: Rat, Liver, S-9, Aroclor 1254, Method: Preincubation): inactive; negative
mutagenic call (Test System: Ames Salmonella typhimurium, Strain/Indicator: TA100, Metabolic Activation: None, Method: Preincubation): inactive; negative
mutagenic call (Test System: Ames Salmonella typhimurium, Strain/Indicator: TA100, Metabolic Activation: Rat, Liver, S-9, Aroclor 1254, Method: Preincubation): inactive; negative
mutagenic call (Test System: Ames Salmonella typhimurium, Strain/Indicator: TA102, Metabolic Activation: None, Method: Preincubation): inactive; negative
mutagenic call (Test System: Ames Salmonella typhimurium, Strain/Indicator: TA102, Metabolic Activation: Rat, Liver, S-9, Aroclor 1254, Method: Preincubation): inactive; negative
mutagenic call (Test System: Ames Salmonella typhimurium, Strain/Indicator: TA1535, Metabolic Activation: None, Method: Preincubation): inactive; negative
mutagenic call (Test System: Ames Salmonella typhimurium, Strain/Indicator: TA1535, Metabolic Activation: Rat, Liver, S-9, Aroclor 1254, Method: Preincubation): inactive; negative

Cc1cc(C(C#N)c2ccc(Cl)cc2)c(Cl)cc1NC(=O)c1cc(I)cc(I)c1O (stereo not given)
mutagenic call (End Point: In vivo chromosomal aberrations, Test System: Bone marrow cells, Species: Mouse, Strain/Sex: Swiss/Male, Route: Intraperitoneal): active; positive (structural changes)

CC(C)(C)OC(=O)O/N=C(/C#N)c1ccccc1
mutagenic call [1]: inactive; negative
mutagenic call [2]: inactive; negative
mutagenic call (Test System: AMES SALMONELLA TYPHIMURIUM, Strain/Indicator: TA100, Metabolic Activation: NONE, Method: STANDARD PLATE): inactive; negative
mutagenic call (Test System: AMES SALMONELLA TYPHIMURIUM, Strain/Indicator: TA100, Metabolic Activation: RAT, LIVER, S-9, AROCLOR 1254, Method: STANDARD PLATE): inactive; negative
mutagenic call [3]: inactive; negative
mutagenic call [4]: inactive; negative
mutagenic call [5]: inactive; negative
mutagenic call [6]: inactive; negative

CC(=O)N(O)c1ccc(/C=C\c2ccccc2)cc1
mutagenic call (Test System: UDS HUMAN FIBROBLASTS, Strain/Indicator: THY INCORP (NON-S-PHASE), Metabolic Activation: NONE, Method: AUTORADIOGRAPHY): active; positive

Nc1nc2c(s1)CC[C@@H]1NCCC[C@@H]21
mutagenic call [7]: inactive; negative
